# Key:
# SK-MEL-2 (melanoma) = experiment: MTS cell viability assay, SK-MEL-2; assay type: cell-based
# Experimental: (§1) Cells were plated, the evening before treatment, for each treatment on 96-well plates (1×10^4 cells/well) in 100 μL volume per well. Analog solutions were prepared by diluting each test compound in DSMO (10 mM) with the appropriate cell growth media for each individual cell line, or in “Universal Media” if several cell lines were to be assayed in parallel, immediately prior to cell treatment. Universal Media consisted of 5 mL sodium pyruvate (100× liquid stock, MediaTech), 5 mL glucose (100×, 45% liquid stock, MediaTech), 5 mL Penicillin/Streptomycin (100× liquid stock, MediaTech), 10 mL sodium bicarbonate (50× liquid stock, MediaTech), 25 mL Fetal Calf Serum, 1.25 mL insulin (4 mg/mL, Gibco) and […] RPMI media with 2 mM L-glutamine for a total volume of 500 mL.
# (§2) Cells were treated by aspirating plating media from each well and adding 80 μL of betulinic acid (control) or each analog solution in serial dilutions to the adherent cells. All treatments were performed in triplicate. Growth media (80 μL) was added to 3 blank wells (no cells) to measure background from the growth media. Growth media alone (no DMSO or test compound) was added to 3 wells containing cells to measure the baseline MTS activity. Vehicle (DMSO) control in serial dilutions, added to cells, was also included to monitor basal toxicity from DMSO. Cells were incubated at 37° C. for 72 h, or 120 h for the OVCAR cell lines. MTS reagent (per 96-well plate) were prepared by combining 2 mL of MTS working solution (Cell Titer AQueous Non-Radioactive Cell Proliferation Assay, Promega, cat#G1112), 100 μL of 0.92 mg/mL phenazine methosulfate/Dulbecco's PBS and 2.1 mL growth media. MTS reagent (40 μL) were added to each well and incubated at 37° C. for 1.5 to 4 h. Plates were gently shaken by hand until solution in each well appeared homogenous. Absorbances at 490 nm were measured on a Wallac Victor II plate reader at multiple time points following the addition of MTS reagent for each plate. Triplicate absorbance (490 nm) measurements were averaged following background (no cell) subtraction for each drug concentration. Percent Cell Viability was calculated for each drug concentration using the following equation:
# (§3) {[Absorbance(analog treated)]/[Absorbance(DMSO treated)]}×100%
# (§4) Cytotoxicity dose response for the triterpenoid derivatives synthesized in SK-MEL-2 (melanoma), A-375 (melanoma), Daoy (glioblastoma), LN-229 (glioblastoma), OVCAR-3 (ovarian carcinoma), HT-29 (colon carcinoma), MCF-7 (breast carcinoma) cell lines using the standard MTS assay is summarized in Table 1. In Table 1, compounds 22a-d and compounds 23a-c refer to structures 22 and 23 in Scheme 5, respectively. Compounds 24aa-an and 24ba-bq refer to structure 24 in Scheme 6. Compounds 26a-e refer to structure 26 in Scheme 6. Compounds 36a-c refer to structure 36 in Scheme 10.
# Daoy = experiment: MTS cell viability assay, Daoy; assay type: cell-based; conditions: cells incubated 72 h
# Experimental: as §1, §2, §3, §4
# [1] = Homo sapiens, SK-MEL-2, cells incubated 72 h
Compound,IC50 (SK-MEL-2 (melanoma); [1]),"IC50 (Daoy; Homo sapiens, Daoy)",IC50 (SK-MEL-2 (melanoma); cells incubated 72 h),IC50 (Daoy)
"C=C(COC(C)=O)[C@@H]1CC[C@]2(C(=O)O)CC[C@]3(C)[C@H](CC[C@@H]4[C@@]5(C)CCC(=O)C(C)(C)[C@@H]5CC[C@]43C)[C@@H]12 [Compound 17a, 30-O-acetyl betulonic acid]",> 45 µM,> 45 µM,–,–
C=C(C(=O)O)[C@@H]1CC[C@]2(COC(C)=O)CC[C@]3(C)[C@H](CC[C@@H]4[C@@]5(C)CCC(=O)C(C)(C)[C@@H]5CC[C@]43C)[C@@H]12 [Compound 13a],> 45 µM,> 45 µM,–,–
C=C(CNCCO)[C@@H]1CC[C@]2(COC3CCCCO3)CC[C@]3(C)[C@H](CC[C@@H]4[C@@]5(C)CCC(O)C(C)(C)[C@@H]5CC[C@]43C)[C@@H]12 (stereo partly drawn) [Compound 23a],16 µM,54 µM,–,–
C=C(CO)[C@@H]1CC[C@]2(COC3CCCCO3)CC[C@]3(C)[C@H](CC[C@@H]4[C@@]5(C)CCC(NC6CCC(O)CC6)C(C)(C)[C@@H]5CC[C@]43C)[C@@H]12 (stereo partly drawn) [Compound 24ak],–,–,38 µM,38 µM
C=C(COC(C)=O)[C@@H]1CC[C@]2(CO)CC[C@]3(C)[C@H](CC[C@@H]4[C@@]5(C)CCC(=O)C(C)(C)[C@@H]5CC[C@]43C)[C@@H]12 [Compound 16],43 µM,> 45 µM,–,–
C=C(CNCCO)[C@@H]1CC[C@]2(COC3CCCCO3)CC[C@]3(C)[C@H](CC[C@@H]4[C@@]5(C)CCC(NC6CCC(O)CC6)C(C)(C)[C@@H]5CC[C@]43C)[C@@H]12 (stereo partly drawn) [Compound 24bi],–,–,5 µM,5 µM
C=C(COC(C)=O)[C@@H]1CC[C@]2(C(=O)O)CC[C@]3(C)[C@H](CC[C@@H]4[C@@]5(C)CC[C@H](O)C(C)(C)[C@@H]5CC[C@]43C)[C@@H]12 [Compound 19a],> 45 µM,> 45 µM,–,–
CC(CNCCO)[C@@H]1CC[C@]2(CO)CC[C@]3(C)[C@H](CC[C@@H]4[C@@]5(C)CCC(O)C(C)(C)[C@@H]5CC[C@]43C)[C@@H]12 (stereo partly drawn) [Compound 36b],16 µM,54 µM,–,–
C=C(C(=O)O)[C@@H]1CC[C@]2(CO)CC[C@]3(C)[C@H](CC[C@@H]4[C@@]5(C)CCC(=O)C(C)(C)[C@@H]5CC[C@]43C)[C@@H]12 [Compound 13b],> 75 µM,> 75 µM,–,–
C=C(C(=O)O)[C@@H]1CC[C@]2(C(=O)O)CC[C@]3(C)[C@H](CC[C@@H]4[C@@]5(C)CCC(=O)C(C)(C)[C@@H]5CC[C@]43C)[C@@H]12 [Compound 11],> 75 µM,> 75 µM,–,–
C=C(CNCCO)[C@@H]1CC[C@]2(COC3CCCCO3)CC[C@]3(C)[C@H](CC[C@@H]4[C@@]5(C)CCC(=O)C(C)(C)[C@@H]5CC[C@]43C)[C@@H]12 (stereo partly drawn) [Compound 22a],17 µM,21 µM,–,–
C=C(CNCCO)[C@@H]1CC[C@]2(COC3CCCCO3)CC[C@]3(C)[C@H](CC[C@@H]4[C@@]5(C)CCC(NCC(=O)OC)C(C)(C)[C@@H]5CC[C@]43C)[C@@H]12 (stereo partly drawn) [Compound 24bd],–,–,16 µM,16 µM
C=C(CO)[C@@H]1CC[C@]2(C(=O)O)CC[C@]3(C)[C@H](CC[C@@H]4[C@@]5(C)CCC(=O)C(C)(C)[C@@H]5CC[C@]43C)[C@@H]12 [Compound 17b],> 45 µM,> 45 µM,–,–
C=C(COC(C)=O)[C@@H]1CC[C@]2(C=O)CC[C@]3(C)[C@H](CC[C@@H]4[C@@]5(C)CCC(=O)C(C)(C)[C@@H]5CC[C@]43C)[C@@H]12 [Compound 18a],> 45 µM,> 45 µM,–,–
C=C(CO)[C@@H]1CC[C@]2(CO)CC[C@]3(C)[C@H](CC[C@@H]4[C@@]5(C)CC[C@H](O)C(C)(C)[C@@H]5CC[C@]43C)[C@@H]12 [Compound 8a],> 75 µM,> 75 µM,–,–
C=C(CNCCc1ccc(O)cc1)[C@@H]1CC[C@]2(COC3CCCCO3)CC[C@]3(C)[C@H](CC[C@@H]4[C@@]5(C)CCC(N)C(C)(C)[C@@H]5CC[C@]43C)[C@@H]12 (stereo partly drawn) [Compound 24bn],5 µM,2 µM,–,–
C=C(C=O)[C@@H]1CC[C@]2(C=O)CC[C@]3(C)[C@H](CC[C@@H]4[C@@]5(C)CCC(=O)C(C)(C)[C@@H]5CC[C@]43C)[C@@H]12 [Compound 20],–,34 µM,–,–

# From patent US20090062243A1, “Lupane-Type Triterpenoids Modified at 30-Position and Analogues Thereof” (ADVANCED LIFE SCIENCES, INC., priority 2007, published 2009)
